Results on eight compounds are retold here after PMC7570544, “Biological Activities and ADMET-Related Properties of Novel Set of Cinnamanilides” (Molecules, 2020).

Values after ≈ are worked out from the molar mass of the structure shown. Values joined by “and” are separate entries in the source; they are usually repeats but may differ in a detail not shown here. Equal entries are not always repeated. Some results are limits rather than exact numbers.

Data set [1] deals with Mycobacterium tuberculosis H37Ra/ATCC 25177. Briefly: In vitro antimycobacterial evaluation. It counts as cell-based. Conditions: M. tuberculosis H37Ra. From the text: Isoniazid (Sigma) was used as the standard.
For data set [2], the system named is NF-κB in THP1-Blue™ NF-κB cells. Briefly: Determination of NF-κB activity after LPS stimulation (Quanti-Blue). The format is cell-based, human. The following applies: 1 µM compound, LPS 1 µg/mL; for increase of NF-κB activity / decrease of NF-κB activity: 1 h pretreatment, 24 h, vs DMSO group. The procedure: To evaluate the anti-inflammatory potential of novel compounds, their ability to attenuate the lipopolysaccharide (LPS)-activated pro-inflammatory transcription nuclear factor (NF)-κB was measured as was described previously. Briefly, THP1-Blue™ NF-κB cells were pretreated by tested compounds dissolved in DMSO in the non-toxic concentration 1 µM for 1 h. After LPS (1 µg/mL) stimulation, the NF-κB activity was evaluated by Quanti-Blue medium (Invivogen) according to the manufacturer’s instructions. The results from 3 independent experiments performed in triplicate (n = 9) were analyzed by GraphPad Prism 8.0.1 software. The outlaying values were excluded by ROUT algorithms (Q = 5%).
Figure 1 Effect of tested compounds on activity of transcription factor NF-κB. […] Then, lipopolysaccharide (LPS) 1 µg/mL was added to trigger the NF-κB activation. The activity of NF-κB was measured 24 h after LPS stimulation using QuantiBlue™ assay. The graph represents mean ± SEM (n = 9). […] Groups were compared with the help of the one-way ANOVA test followed by Fisher’s LSD multiple comparison test. * indicates statistical significance (p < 0.05) to DMSO group; ** indicates statistical significance (p < 0.01) to DMSO group; *** indicates statistical significance (p < 0.001) to DMSO group; **** indicates statistical significance (p < 0.0001) to DMSO group. CA—cinnamic acid.

The test system of data set [3] is THP1-Blue™ NF-κB cell line. Description: In vitro cell viability assay (WST-1). The format is cell-based. The following applies: Homo sapiens; THP1-Blue NF-κB cells, 24 h incubation, WST-1, mean ± SEM, n = 6; read-out: Tox IC50 ± SEM. The procedure:
The cytotoxic effect of the tested compounds was specified on THP1-Blue™ NF-κB cell line (Invivogen; San Diego, CA, USA), as described previously. […] The final concentration of DMSO was 0.1% (v/v) in each well. The viability analysis was performed after 24 h incubation with the tested substances using the WST-1 Cell Proliferation Reagent kit (Roche Diagnostics, Basel, Switzerland) according to the manufacturer’s manual. […] The IC50 values were calculated by four-parameter logistic (4PL) analysis from obtained viability curves by GraphPad Prism 8.0.1 (San Diego, CA, USA) software.

The conditions of data set [4]: RP-HPLC, 72:28 MeOH:H2O.
For data set [5], the system named is Staphylococcus aureus ATCC 29213. Description: In vitro antibacterial evaluation, broth microdilution MIC, reference strain. It counts as cell-based. Conditions: S. aureus ATCC 29213.
The nature of data set [6]: Lipophilicity determination by RP-TLC. The format is physicochemical. Set-up: key to RM (MeOH:H2O): RM = log(1/RF - 1), from RP-18 TLC. The following applies: for RM (MeOH:H2O): 72:28 MeOH:H2O; for RM (pH 7.4): 72:28 MeOH:NaOAc buffer (pH 7.4). The procedure:
RM values were determined from the RP-18 TLC measurements. […] The volatiles were carefully evaporated, and the plate was developed by MeOH (100%) or MeOH: H2O-HPLC (72:28 v/v) or MeOH: NaOAc buffer, pH 7.4 (72:28 v/v). After drying, the spots were visualized under UV (λ = 365 nm). RM data were obtained from equation: RM = log(1/RF-1). Each experiment was repeated three times.

Data set [7] deals with methicillin-resistant Staphylococcus aureus (MRSA) 63718. Briefly: In vitro antibacterial evaluation, broth microdilution MIC, MRSA isolate 63718. The following applies: clinical isolate MRSA 63718. It counts as cell-based. (In broth dilution the organism is exposed to a series of concentrations in liquid medium.)
Data set [8] has as its system methicillin-resistant Staphylococcus aureus (MRSA) SA 630. Description: In vitro antibacterial evaluation, broth microdilution MIC, MRSA isolate SA 630. The following applies: clinical isolate MRSA SA 630. It counts as cell-based.
For data set [9], the system named is S. aureus and MRSA isolates. Description: Minimum bactericidal concentration (MBC) by subcultivation.
Another data set concerns S. aureus ATCC 29213. Briefly: MTT assay of bacterial viability. Conditions: Staphylococcus aureus, ATCC29213, read-out: viability of S. aureus ATCC 29213 (MTT).
Where [10] appears, read: Staphylococcus aureus, ATCC29213.

A word on the MIC: it is the least concentration at which growth counts as inhibited. In general, IC50 refers to the concentration that inhibits the measured activity by half. Broadly, the chromatographic logD is a lipophilicity value derived from retention on a column. Regarding `O=C(/C=C/c1ccccc1)Nc1c(F)cc(F)cc1F` [Compound 2, (2E)-3-Phenyl-N-(2,4,6-trifluorophenyl)prop-2-enamide], the MIC was greater than 462 µM in data set [1], greater than 924 µM in data set [5] (setting [10]), greater than 924 µM in data set [7] and greater than 924 µM in [8]. Besides, the “increase of NF-κB activity” value in data set [2] is 10–15%. In [3], the IC50 is greater than 20 µM. In data set [4], the Logk was −0.0831. Further, the figures for the chromatographic logD in “physchem” (pH 6.5) and in “physchem” (pH 7.4) were 0.0107 and 0.026, respectively. Also, the “RM (MeOH:H2O)” value in data set [6] was 0.1218. The “RM (pH 7.4)” value in data set [6] was found to be 0.1951. Besides, the “RM (100% MeOH)” value in [6] is −0.6536.

As for `O=C(/C=C/c1ccccc1)Nc1ccc(Cl)cc1Cl` [Compound 4, (2E)-N-(2,4-Dichlorophenyl)-3-phenylprop-2-enamide], the “increase of NF-κB activity” value in [2] was 10–15%. The 50% inhibitory concentration (IC50) in data set [3] is greater than 20 µM. Moreover, in data set [4], the Logk was found to be 0.5278. The chromatographic logD was determined as 0.569 in “physchem” (pH 6.5) and 0.589 in the data set “physchem” (pH 7.4). The minimum inhibitory concentration (MIC) in [5] (setting [10]), in data set [7] and in [8] was greater than 880 µM in each case. The “RM (MeOH:H2O)” value in [6] was 0.6546. For the same compound, the “RM (pH 7.4)” value in data set [6] amounted to 0.5495. Besides, in data set [6], the “RM (100% MeOH)” value is recorded as −0.3933.

In the case of `O=C(/C=C/c1ccccc1)Nc1cc(Cl)c(Cl)cc1Cl` [Compound 5, (2E)-3-Phenyl-N-(2,4,5-trichlorophenyl)prop-2-enamide], the “increase of NF-κB activity” value in data set [2] is reported as 10–15%. Besides, the 50% inhibitory concentration (IC50) in data set [3] is greater than 20 µM. In addition, in data set [4], the Logk stood at 0.8373. The chromatographic logD is 0.865 in “physchem” (pH 6.5) and 0.888 in the data set “physchem” (pH 7.4). The minimal inhibitory concentration (MIC) in [5] (setting [10]), in data set [7] and in [8] was greater than 790 µM in each case. In addition, the “RM (MeOH:H2O)” value in [6] was found to be 0.9695. Also, the “RM (pH 7.4)” value in data set [6] amounted to 0.9832. Moreover, the “RM (100% MeOH)” value in data set [6] is given as −0.2497.

By viability is commonly meant a per cent measure of how many cells are alive, often set against a control. In the case of `O=C(/C=C/c1ccccc1)Nc1ccc(C(F)(F)F)c(F)c1` [Compound 10, (2E)-N-[3-Fluoro-4-(trifluoromethyl)phenyl]-3-phenylprop-2-enamide], the minimal inhibitory concentration (MIC) is greater than 414 µM in data set [1]; 25.9 µM (≈ 8.01 µg/mL) in [5]; 8 µg/mL and 25.9 µM in [5] (setting [10]); 25.9 µM (≈ 8.01 µg/mL) in data set [7]; 12.9 µM (≈ 3.99 µg/mL) in [8]. Further, the “increase of NF-κB activity” value in data set [2] is 10–15%. Further, the IC50 in data set [3] is greater than 20 µM. Further, in data set [4], the Logk was determined as 0.5789. The figures for the chromatographic logD in “physchem” (pH 6.5) and in the data set “physchem” (pH 7.4) were 0.61 and 0.633, respectively. In addition, the “RM (MeOH:H2O)” value in data set [6] is 0.7923. Further, the “RM (pH 7.4)” value in data set [6] stood at 0.5960. Besides, the “RM (100% MeOH)” value in data set [6] is listed as −0.5032. Besides, the MBC result in [9] (S. aureus and MRSA isolates, compared with MIC) is “equal to the MIC values”. In addition, the bacteriostatic/bactericidal classification entry in data set [9] (bactericidal if MBC/MIC ≤4) is reported as “bactericidal”. Also, the viability at 25.9 µM in the data set on S. aureus ATCC 29213 was 13.4 ± 0.1%.

Take `O=C(/C=C/c1ccccc1)Nc1cc(C(F)(F)F)ccc1Br` [Compound 13, (2E)-N-[2-Bromo-5-(trifluoromethyl)phenyl]-3-phenylprop-2-enamide]: the minimal inhibitory concentration (MIC) in data set [1] is greater than 348 µM; in [5] (setting [10]), greater than 696 µM; in [7] it was greater than 696 µM; in data set [8], greater than 696 µM. In data set [2], the “anti-inflammatory potential (LPS-induced NF-κB activation), in words” value is on record as “insignificant anti-inflammatory potential”. Also, the half-inhibitory concentration (IC50) in data set [3] was greater than 20 µM. The compound also yielded a Logk in data set [4] of 0.5561. Besides, the chromatographic logD amounted to 0.594 in the data set “physchem” (pH 6.5) and 0.616 in “physchem” (pH 7.4). Further, the “RM (MeOH:H2O)” value in [6] is given as 0.7194. The “RM (pH 7.4)” value in [6] stood at 0.5619. The “RM (100% MeOH)” value in [6] is −0.4325.

Turning to `O=C(/C=C/c1ccccc1)Nc1ccc(F)cc1C(F)(F)F` [Compound 14, (2E)-N-[4-Fluoro-2-(trifluoromethyl)phenyl]-3-phenylprop-2-enamide], the MIC was greater than 414 µM in data set [1], greater than 828 µM in data set [5] (setting [10]), greater than 828 µM in data set [7] and greater than 828 µM in data set [8]. Also, the “decrease of NF-κB activity” value in [2] was “approximately 9%”. For the same compound, the IC50 in data set [3] is greater than 20 µM. Further, the Logk in data set [4] was 0.1607. The chromatographic logD in “physchem” (pH 6.5) was 0.222; in “physchem” (pH 7.4), 0.243. In addition, the “RM (MeOH:H2O)” value in [6] is listed as 0.3011. For the same compound, in [6], the “RM (pH 7.4)” value amounted to 0.1330. Besides, the “RM (100% MeOH)” value in data set [6] is recorded as −0.6797.

Turning to `O=C(/C=C/c1ccccc1)Nc1ccc([N+](=O)[O-])c(C(F)(F)F)c1` [Compound 18, (2E)-N-[4-Nitro-3-(trifluoromethyl)phenyl]-3-phenylprop-2-enamide], the minimum inhibitory concentration (MIC) is greater than 381 µM in data set [1], greater than 762 µM in data set [5] (setting [10]), greater than 762 µM in data set [7] and greater than 762 µM in [8]. The “decrease of NF-κB activity” value in data set [2] is “approximately 9%”. In data set [3], the IC50 was greater than 20 µM. Moreover, in [4], the Logk was found to be 0.5004. The chromatographic logD in “physchem” (pH 6.5) came to 0.51; in “physchem” (pH 7.4), 0.557. For the same compound, the “RM (MeOH:H2O)” value in data set [6] is reported as 0.6927. Further, in data set [6], the “RM (pH 7.4)” value was found to be 0.6160. Also, the “RM (100% MeOH)” value in data set [6] is −0.4804.

In the case of `O=C(/C=C/c1ccccc1)Nc1c(Br)cc(F)c(Cl)c1Br` [Compound 20, (2E)-N-(2,6-Dibromo-3-chloro-4-fluorophenyl)-3-phenylprop-2-enamide], the MIC in data set [1] is greater than 298 µM; in data set [5] (setting [10]), greater than 595 µM; in [7], greater than 595 µM; in data set [8], greater than 595 µM. In addition, the “decrease of NF-κB activity” value in [2] is “approximately 9%”. The “anti-inflammatory potential (LPS-induced NF-κB activation), in words” value in data set [2] is listed as “more potent than the parental cinnamic acid”. Besides, the IC50 in [3] was greater than 20 µM. The Logk in data set [4] is 0.3139. Also, the chromatographic logD in the data set “physchem” (pH 6.5) was found to be 0.37; in “physchem” (pH 7.4) it was 0.392. For the same compound, in data set [6], the “RM (MeOH:H2O)” value turned out to be 0.4320. For the same compound, the “RM (pH 7.4)” value in [6] is 0.4138. The “RM (100% MeOH)” value in data set [6] was −0.5541.
